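Dose response: 5 concentrations. Exposure: 48 h. Format: 96-well plates. Endpoint: linear interpolation; highest concentration if not reached. Abbreviation: GI50, concentration required for 50% inhibition of growth.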 Calls of active or inactive are those of the source. No stated cut-off is given here; in the data, active = GI50 up to about 1.1 µM and inactive = higher.
Experiments:
Assay in all cases: inhibition of tumour cell growth, NCI panel, 48 h
[1] = test system: 786-0
[2] = test system: A549
[3] = test system: ACHN
[4] = test system: CAKI-1
[5] = test system: CCRF-CEM
[6] = test system: COLO 205
[7] = test system: DLD-1
[8] = test system: DMS-114
[9] = test system: DMS-273
[10] = test system: EKVX
[11] = test system: HCC 2998
[12] = test system: HCT-116
[13] = test system: HCT-15
[14] = test system: HL-60
[15] = test system: HOP-18
[16] = test system: HOP-62
[17] = test system: HOP-92
[18] = test system: HT-29
[19] = test system: IGROV-1
[20] = test system: K562
[21] = test system: KM-20L2
[22] = test system: KM12
[23] = test system: LXFL 529
[24] = test system: M14
[25] = test system: M19-MEL
[26] = test system: MOLT-4
[27] = test system: Malme-3M
[28] = test system: NCI-H226
[29] = test system: NCI-H23
[30] = test system: NCI-H460
[31] = test system: NCI-H522
[32] = test system: OVCAR-3
[33] = test system: OVCAR-4
[34] = test system: OVCAR-5
[35] = test system: OVCAR-8
[36] = test system: RPMI-8226
[37] = test system: RXF 393
[38] = test system: RXF 631
[39] = test system: SF-268
[40] = test system: SF-295
[41] = test system: SF-539
[42] = test system: SK-MEL-28
[43] = test system: SK-MEL-2
[44] = test system: SK-MEL-5
[45] = test system: SK-OV-3
[46] = test system: SN12C
[47] = test system: SNB-19
[48] = test system: SNB-75
[49] = test system: SNB-78
[50] = test system: SR
[51] = test system: SW-620
[52] = test system: U-251
[53] = test system: UACC-257
[54] = test system: UACC-62
[55] = test system: UO-31
[56] = test system: A498
[57] = test system: LOX IMVI
[58] = test system: TK-10

**Q.** What does the source list for CCCN(CCCN)/[N+]([O-])=N\O?
**A.** GI50 [1]: > 100 µM (inactive); GI50 [2]: > 100 µM (inactive); GI50 [3]: > 100 µM (inactive); GI50 [4]: > 100 µM (inactive); GI50 [5]: > 100 µM (inactive); GI50 [6]: > 100 µM (inactive); GI50 [7]: > 100 µM (inactive); GI50 [8]: > 100 µM (inactive); GI50 [9]: > 100 µM (inactive); GI50 [10]: 0.24 µM (active); GI50 [11]: > 100 µM (inactive); GI50 [12]: > 100 µM (inactive); GI50 [13]: > 100 µM; GI50 [14]: > 100 µM (inactive); GI50 [15]: > 100 µM (inactive); GI50 [16]: > 100 µM (inactive); GI50 [17]: > 100 µM (inactive); GI50 [18]: > 100 µM (inactive); GI50 [19]: > 100 µM (inactive); GI50 [20]: > 100 µM (inactive); GI50 [21]: 0.4 µM (active); GI50 [22]: > 100 µM (inactive); GI50 [23]: > 100 µM (inactive); GI50 [24]: > 100 µM (inactive); GI50 [25]: > 100 µM (inactive); GI50 [26]: > 100 µM (inactive); GI50 [27]: > 100 µM (inactive); GI50 [28]: > 100 µM (inactive); GI50 [29]: > 100 µM (inactive); GI50 [30]: > 100 µM (inactive); GI50 [31]: > 100 µM (inactive); GI50 [32]: > 100 µM (inactive); GI50 [33]: > 100 µM (inactive); GI50 [34]: > 100 µM (inactive); GI50 [35]: > 100 µM (inactive); GI50 [36]: > 100 µM (inactive); GI50 [37]: > 100 µM (inactive); GI50 [38]: > 100 µM (inactive); GI50 [39]: > 100 µM (inactive); GI50 [40]: > 100 µM (inactive); GI50 [41]: > 100 µM (inactive); GI50 [42]: > 100 µM (inactive); GI50 [43]: > 100 µM (inactive); GI50 [44]: > 100 µM (inactive); GI50 [45]: > 100 µM (inactive); GI50 [46]: > 100 µM (inactive); GI50 [47]: > 100 µM (inactive); GI50 [48]: > 100 µM (inactive); GI50 [49]: > 100 µM (inactive); GI50 [50]: > 100 µM (inactive); GI50 [51]: > 100 µM (inactive); GI50 [52]: > 100 µM (inactive); GI50 [53]: > 100 µM (inactive); GI50 [54]: 0.195 µM (active); GI50 [55]: > 100 µM (inactive)

**Q.** With COc1ccc(NC(=O)CC(=O)N/N=C/c2ccc(N(CCC#N)S(C)(=O)=O)cc2)cc1 as the molecule, how does the GI50 [1] read?
**A.** Its GI50 is > 100 µM (inactive).

**Q.** What about the GI50 [56] of the same molecule?
**A.** The GI50 was > 100 µM (inactive).

**Q.** What about the GI50 [2] of the same molecule?
**A.** Its GI50 is > 100 µM (inactive).

**Q.** And the GI50 [3]?
**A.** Its GI50 is > 100 µM (inactive).

**Q.** What about the GI50 [4] of the same molecule?
**A.** The GI50 was > 100 µM (inactive).

**Q.** What about the GI50 [5] of the same molecule?
**A.** Its GI50 is > 100 µM (inactive).

**Q.** And the GI50 [6]?
**A.** The GI50 was > 100 µM (inactive).

**Q.** What about the GI50 [7] of the same molecule?
**A.** The GI50 was > 100 µM (inactive).

**Q.** What about the GI50 [8] of the same molecule?
**A.** Its GI50 is > 100 µM (inactive).

**Q.** And the GI50 [9]?
**A.** Its GI50 is > 100 µM (inactive).

**Q.** What about the GI50 [10] of the same molecule?
**A.** Its GI50 is > 100 µM (inactive).

**Q.** And the GI50 [11]?
**A.** The GI50 was > 100 µM (inactive).

**Q.** And the GI50 [12]?
**A.** Its GI50 is > 100 µM (inactive).

**Q.** And the GI50 [13]?
**A.** Its GI50 is over 100 µM.

**Q.** And the GI50 [15]?
**A.** Its GI50 is > 100 µM (inactive).

**Q.** And the GI50 [16]?
**A.** Its GI50 is > 100 µM (inactive).

**Q.** What about the GI50 [18] of the same molecule?
**A.** The GI50 was > 100 µM (inactive).

**Q.** And the GI50 [19]?
**A.** The GI50 was > 100 µM (inactive).

**Q.** What about the GI50 [20] of the same molecule?
**A.** The GI50 was > 100 µM (inactive).

**Q.** What about the GI50 [21] of the same molecule?
**A.** The GI50 was > 100 µM (inactive).

**Q.** What about the GI50 [22] of the same molecule?
**A.** Its GI50 is > 100 µM (inactive).

**Q.** And the GI50 [57]?
**A.** Its GI50 is > 100 µM (inactive).

**Q.** What about the GI50 [23] of the same molecule?
**A.** Its GI50 is > 100 µM (inactive).

**Q.** What about the GI50 [24] of the same molecule?
**A.** Its GI50 is > 100 µM (inactive).

**Q.** And the GI50 [25]?
**A.** Its GI50 is > 100 µM (inactive).

**Q.** And the GI50 [26]?
**A.** The GI50 was > 100 µM (inactive).

**Q.** What about the GI50 [27] of the same molecule?
**A.** Its GI50 is > 100 µM (inactive).

**Q.** And the GI50 [28]?
**A.** Its GI50 is > 100 µM (inactive).

**Q.** What about the GI50 [29] of the same molecule?
**A.** Its GI50 is > 100 µM (inactive).

**Q.** And the GI50 [30]?
**A.** Its GI50 is > 100 µM (inactive).

**Q.** What about the GI50 [31] of the same molecule?
**A.** Its GI50 is > 100 µM (inactive).

**Q.** And the GI50 [32]?
**A.** Its GI50 is > 100 µM (inactive).

**Q.** What about the GI50 [33] of the same molecule?
**A.** The GI50 was > 100 µM (inactive).

**Q.** And the GI50 [34]?
**A.** Its GI50 is > 100 µM (inactive).

**Q.** And the GI50 [35]?
**A.** Its GI50 is > 100 µM (inactive).

**Q.** And the GI50 [36]?
**A.** The GI50 was > 100 µM (inactive).

**Q.** And the GI50 [37]?
**A.** The GI50 was > 100 µM (inactive).

**Q.** And the GI50 [38]?
**A.** The GI50 was > 100 µM (inactive).

**Q.** And the GI50 [39]?
**A.** The GI50 was > 100 µM (inactive).

**Q.** And the GI50 [40]?
**A.** Its GI50 is > 100 µM (inactive).

**Q.** What about the GI50 [41] of the same molecule?
**A.** The GI50 was > 100 µM (inactive).

**Q.** And the GI50 [42]?
**A.** The GI50 was > 100 µM (inactive).

**Q.** And the GI50 [43]?
**A.** The GI50 was > 100 µM (inactive).

**Q.** What about the GI50 [44] of the same molecule?
**A.** The GI50 was > 100 µM (inactive).

**Q.** And the GI50 [45]?
**A.** Its GI50 is > 100 µM (inactive).

**Q.** And the GI50 [46]?
**A.** Its GI50 is > 100 µM (inactive).

**Q.** What about the GI50 [48] of the same molecule?
**A.** The GI50 was > 100 µM (inactive).

**Q.** What about the GI50 [49] of the same molecule?
**A.** The GI50 was > 100 µM (inactive).

**Q.** And the GI50 [50]?
**A.** Its GI50 is 3.33 µM (inactive).

**Q.** And the GI50 [51]?
**A.** Its GI50 is > 100 µM (inactive).

**Q.** What about the GI50 [58] of the same molecule?
**A.** The GI50 was > 100 µM (inactive).

**Q.** What about the GI50 [52] of the same molecule?
**A.** The GI50 was > 100 µM (inactive).

**Q.** What about the GI50 [54] of the same molecule?
**A.** The GI50 was > 100 µM (inactive).

**Q.** And the GI50 [55]?
**A.** Its GI50 is > 100 µM (inactive).

**Q.** For O=C(O)C1NCCc2c1[nH]c1ccccc21 (stereo not given), which GI50 [7] is on record?
**A.** Its GI50 is > 100 µM (inactive).

**Q.** And the GI50 [8]?
**A.** Its GI50 is > 100 µM (inactive).

**Q.** What about the GI50 [9] of the same molecule?
**A.** Its GI50 is > 100 µM (inactive).

**Q.** What about the GI50 [15] of the same molecule?
**A.** The GI50 was > 100 µM (inactive).

**Q.** And the GI50 [21]?
**A.** Its GI50 is > 100 µM (inactive).

**Q.** And the GI50 [57]?
**A.** The GI50 was > 100 µM (inactive).

**Q.** And the GI50 [23]?
**A.** Its GI50 is > 100 µM (inactive).

**Q.** What about the GI50 [25] of the same molecule?
**A.** The GI50 was > 100 µM (inactive).

**Q.** What about the GI50 [28] of the same molecule?
**A.** Its GI50 is > 100 µM (inactive).

**Q.** And the GI50 [30]?
**A.** The GI50 was > 100 µM (inactive).

**Q.** And the GI50 [34]?
**A.** Its GI50 is > 100 µM (inactive).

**Q.** What about the GI50 [38] of the same molecule?
**A.** Its GI50 is > 100 µM (inactive).

**Q.** What about the GI50 [40] of the same molecule?
**A.** The GI50 was > 100 µM (inactive).

**Q.** What about the GI50 [43] of the same molecule?
**A.** The GI50 was > 100 µM (inactive).

**Q.** What about the GI50 [49] of the same molecule?
**A.** Its GI50 is > 100 µM (inactive).

**Q.** What about the GI50 [55] of the same molecule?
**A.** Its GI50 is > 100 µM (inactive).

Source: ChEMBL document CHEMBL1201862, “PubChem BioAssay data set” (2004)
